Results from ChEMBL document CHEMBL1212922, “Crystal structure-based selective targeting of the pyridoxal 5'-phosphate dependent enzyme kynurenine aminotransferase II for cognitive enhancement” (J Med Chem, 2010).

Key:
[1] = target: T1, Kynurenine--oxoglutarate transaminase 1 (Homo sapiens, UniProt Q16773); experiment: Inhibition of KAT1 in human prefrontal cortex homogenates; format: tissue-based
T1 sequence (Q16773 whole entry): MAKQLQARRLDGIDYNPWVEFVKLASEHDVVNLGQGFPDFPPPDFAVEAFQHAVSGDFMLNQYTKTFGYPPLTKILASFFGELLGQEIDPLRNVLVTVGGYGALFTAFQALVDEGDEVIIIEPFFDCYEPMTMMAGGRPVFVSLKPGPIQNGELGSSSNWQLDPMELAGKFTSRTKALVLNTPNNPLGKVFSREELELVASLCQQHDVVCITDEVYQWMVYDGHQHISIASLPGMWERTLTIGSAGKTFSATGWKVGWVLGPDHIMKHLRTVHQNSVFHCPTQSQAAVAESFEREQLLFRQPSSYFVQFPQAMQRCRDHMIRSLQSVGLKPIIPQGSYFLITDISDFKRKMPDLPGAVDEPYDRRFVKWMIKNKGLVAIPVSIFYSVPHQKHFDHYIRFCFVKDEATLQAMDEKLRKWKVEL

[2] = target: T2, Kynurenine/alpha-aminoadipate aminotransferase, mitochondrial (Homo sapiens, UniProt Q8N5Z0); experiment: Inhibition of KAT2 in human prefrontal cortex homogenates; format: tissue-based
[3] = target: T3, Kynureninase (Homo sapiens) (UniProt Q16719); experiment: Inhibition of kynureninase in human prefrontal cortex homogenates at 100 uM; format: tissue-based
T3 sequence (whole entry): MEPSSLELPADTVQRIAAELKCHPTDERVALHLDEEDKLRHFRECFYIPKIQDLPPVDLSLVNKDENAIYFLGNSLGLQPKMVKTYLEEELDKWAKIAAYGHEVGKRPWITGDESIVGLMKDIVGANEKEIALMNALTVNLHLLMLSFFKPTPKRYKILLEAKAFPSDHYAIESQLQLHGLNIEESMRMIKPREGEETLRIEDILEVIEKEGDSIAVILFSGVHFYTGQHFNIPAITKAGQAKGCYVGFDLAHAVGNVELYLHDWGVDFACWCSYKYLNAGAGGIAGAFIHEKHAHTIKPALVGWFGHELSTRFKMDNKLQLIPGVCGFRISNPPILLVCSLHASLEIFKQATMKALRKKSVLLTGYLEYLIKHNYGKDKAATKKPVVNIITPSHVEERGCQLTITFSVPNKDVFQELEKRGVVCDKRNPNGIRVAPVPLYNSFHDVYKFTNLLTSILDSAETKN

[4] = target: T1, Kynurenine--oxoglutarate transaminase 1; experiment: Inhibition of human recombinant MBP-KAT1 expressed in Escherichia coli BL21 assessed as conversion of L-kynurenine to kynurenic acid after 1 hr
[5] = target: T2, Kynurenine/alpha-aminoadipate aminotransferase, mitochondrial; experiment: Inhibition of human recombinant MBP-KAT2 expressed in HEK293 cells assessed as conversion of L-kynurenine to kynurenic acid after 1 hr
[6] = target: Kynurenine 3-monooxygenase (Homo sapiens) (UniProt O15229); experiment: Inhibition of kynurenine 3-monooxygenase in human prefrontal cortex homogenates at 100 uM; format: tissue-based
[7] = target: Kynurenine/alpha-aminoadipate aminotransferase, mitochondrial (Rattus norvegicus, UniProt Q64602); experiment: Inhibition of rat brain KAT2
Kynurenine/alpha-aminoadipate aminotransferase, mitochondrial (Rattus norvegicus, UniProt Q64602), sequence (Q64602 whole entry): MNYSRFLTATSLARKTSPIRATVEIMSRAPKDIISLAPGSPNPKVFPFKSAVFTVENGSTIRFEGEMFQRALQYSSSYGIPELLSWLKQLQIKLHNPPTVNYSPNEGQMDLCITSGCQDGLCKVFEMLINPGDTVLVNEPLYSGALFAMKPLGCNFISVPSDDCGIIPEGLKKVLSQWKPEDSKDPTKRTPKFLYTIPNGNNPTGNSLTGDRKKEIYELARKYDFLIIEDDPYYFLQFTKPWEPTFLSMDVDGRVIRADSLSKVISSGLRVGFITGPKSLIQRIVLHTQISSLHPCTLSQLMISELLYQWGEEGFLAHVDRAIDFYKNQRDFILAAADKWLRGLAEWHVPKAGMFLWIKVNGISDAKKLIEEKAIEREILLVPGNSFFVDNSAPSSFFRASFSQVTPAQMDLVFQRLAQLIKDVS

T2 sequence (Q8N5Z0 whole entry): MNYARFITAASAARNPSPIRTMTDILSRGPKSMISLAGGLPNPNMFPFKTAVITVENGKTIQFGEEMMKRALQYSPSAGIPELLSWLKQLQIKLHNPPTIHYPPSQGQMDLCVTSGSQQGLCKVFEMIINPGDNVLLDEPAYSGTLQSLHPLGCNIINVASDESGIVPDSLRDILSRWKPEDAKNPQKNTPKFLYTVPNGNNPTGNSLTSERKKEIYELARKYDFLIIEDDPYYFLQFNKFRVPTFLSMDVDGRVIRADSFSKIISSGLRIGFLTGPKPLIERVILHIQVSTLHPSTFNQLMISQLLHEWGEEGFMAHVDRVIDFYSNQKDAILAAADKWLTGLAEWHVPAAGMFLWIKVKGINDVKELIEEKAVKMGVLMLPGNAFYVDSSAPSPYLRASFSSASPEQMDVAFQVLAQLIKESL
Kynurenine 3-monooxygenase (Homo sapiens), sequence (O15229 whole entry, looked up): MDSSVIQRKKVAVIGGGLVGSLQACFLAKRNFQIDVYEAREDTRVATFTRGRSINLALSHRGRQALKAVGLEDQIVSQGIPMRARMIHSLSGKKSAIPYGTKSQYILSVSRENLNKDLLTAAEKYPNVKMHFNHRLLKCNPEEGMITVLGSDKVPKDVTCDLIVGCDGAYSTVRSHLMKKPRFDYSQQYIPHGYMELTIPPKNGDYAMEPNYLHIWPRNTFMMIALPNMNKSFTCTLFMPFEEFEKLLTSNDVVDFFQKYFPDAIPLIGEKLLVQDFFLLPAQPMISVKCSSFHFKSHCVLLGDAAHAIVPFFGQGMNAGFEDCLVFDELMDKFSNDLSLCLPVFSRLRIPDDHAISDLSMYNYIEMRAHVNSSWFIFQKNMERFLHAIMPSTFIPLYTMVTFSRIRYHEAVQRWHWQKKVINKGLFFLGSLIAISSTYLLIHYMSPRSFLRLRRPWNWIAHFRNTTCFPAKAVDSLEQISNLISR

IC50 [1] [µM] | IC50 [2] [nM] | inhibition [3] [%] | IC50 [4] [µM] | IC50 [5] [nM] | inhibition [6] [%] | IC50 [7] [nM] | SMILES
> 30 | 1000 | 5.1 | > 30 | 910 | 8.3 | 1000 | C[C@H]1COc2c(N3CCN(N)CC3)c(F)cc3c(=O)c(C(=O)O)cn1c23
– | – | – | – | 1500 | – | – | C[C@@H]1COc2c(N3CCN(N)CC3)c(F)cc3c(=O)c(C(=O)O)cn1c23
